Reference: patent US11046699B2, “Pyrazolo-pyrimidin-amino-cycloalkyl compounds and their therapeutic uses” (RAPT THERAPEUTICS, INC., priority 2018, dated 2021)

What follows are compounds tested against GCN2 (Homo sapiens, UniProt Q9P2K8) (assay: GCN2 enzymatic endpoint assay: phosphorylation of GFP-eIF2α measured by TR-FRET (Lanthascreen)). Details: GCN2 biochemical IC50; 4 nM GCN2, 2 μM ATP, 80 nM GFP-eIF2α, 90 min RT; read-out: GCN2 activity.
Chain of GCN2 (Q9P2K8 whole entry): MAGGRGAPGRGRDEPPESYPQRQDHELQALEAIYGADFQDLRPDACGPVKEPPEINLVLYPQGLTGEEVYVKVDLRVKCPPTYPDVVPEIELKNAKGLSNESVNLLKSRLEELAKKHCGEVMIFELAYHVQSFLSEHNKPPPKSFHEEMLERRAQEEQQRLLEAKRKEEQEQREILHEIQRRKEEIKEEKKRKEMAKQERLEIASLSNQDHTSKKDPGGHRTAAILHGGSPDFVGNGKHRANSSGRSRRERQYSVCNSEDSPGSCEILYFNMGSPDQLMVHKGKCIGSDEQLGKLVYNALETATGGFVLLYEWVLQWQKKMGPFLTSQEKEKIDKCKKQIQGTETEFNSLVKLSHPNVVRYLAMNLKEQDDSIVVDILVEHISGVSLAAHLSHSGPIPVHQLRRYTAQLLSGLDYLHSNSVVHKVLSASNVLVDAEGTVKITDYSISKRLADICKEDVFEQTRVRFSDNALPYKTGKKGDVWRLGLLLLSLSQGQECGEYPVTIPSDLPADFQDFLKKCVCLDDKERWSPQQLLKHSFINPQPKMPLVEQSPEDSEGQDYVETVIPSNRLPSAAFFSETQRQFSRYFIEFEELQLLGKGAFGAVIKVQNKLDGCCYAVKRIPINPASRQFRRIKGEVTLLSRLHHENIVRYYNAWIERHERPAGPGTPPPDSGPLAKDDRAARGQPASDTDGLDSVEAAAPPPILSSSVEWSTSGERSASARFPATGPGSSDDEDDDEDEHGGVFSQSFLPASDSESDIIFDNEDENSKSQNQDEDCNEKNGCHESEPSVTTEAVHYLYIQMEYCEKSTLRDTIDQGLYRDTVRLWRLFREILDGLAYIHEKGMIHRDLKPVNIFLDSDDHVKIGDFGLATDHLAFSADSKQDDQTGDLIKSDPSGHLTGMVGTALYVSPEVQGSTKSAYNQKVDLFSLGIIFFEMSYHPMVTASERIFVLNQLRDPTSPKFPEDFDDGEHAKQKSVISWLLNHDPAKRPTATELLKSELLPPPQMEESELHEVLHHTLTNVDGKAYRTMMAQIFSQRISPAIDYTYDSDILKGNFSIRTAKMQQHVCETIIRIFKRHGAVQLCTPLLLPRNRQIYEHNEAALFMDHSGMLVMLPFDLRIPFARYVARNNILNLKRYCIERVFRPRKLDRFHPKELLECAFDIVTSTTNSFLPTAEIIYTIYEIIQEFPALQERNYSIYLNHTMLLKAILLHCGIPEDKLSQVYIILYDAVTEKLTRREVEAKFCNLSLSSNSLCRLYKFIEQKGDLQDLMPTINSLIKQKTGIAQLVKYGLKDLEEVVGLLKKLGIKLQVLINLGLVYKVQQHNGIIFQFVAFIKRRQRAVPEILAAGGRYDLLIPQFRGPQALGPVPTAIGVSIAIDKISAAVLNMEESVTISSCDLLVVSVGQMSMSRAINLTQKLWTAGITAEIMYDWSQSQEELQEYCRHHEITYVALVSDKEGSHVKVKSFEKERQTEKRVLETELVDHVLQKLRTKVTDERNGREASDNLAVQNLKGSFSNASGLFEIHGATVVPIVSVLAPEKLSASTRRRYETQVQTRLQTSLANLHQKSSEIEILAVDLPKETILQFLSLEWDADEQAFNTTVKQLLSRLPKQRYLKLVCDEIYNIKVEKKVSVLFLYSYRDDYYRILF
Type: biochemical
Summary of the method: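 Phosphorylated eIF2α read by Lanthascreen TR-FRET (acceptor 520 nm over donor 495 nm) after EDTA stop. The reaction ran 90 min at room temperature on 80 nM GFP-eIF2α with 2 μM ATP.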
In the case of `COCc1noc([C@@H]2CC[C@@H](Nc3ncc4c(Br)nn(-c5ccc6ncccc6c5)c4n3)C2)n1` [Example 5, 3-bromo-N-((1R,3R)-3-(3-(methoxymethyl)-1,2,4-oxadiazol-5-yl)cyclopentyl)-1-(quinolin-6-yl)-1H-pyrazolo[3,4-d]pyrimidin-6-amine], the IC50 is reported as 0.5 to 1 µM. `Cc1nnc(-c2ccc(-n3nc(Br)c4cnc(N[C@@H]5CC[C@@](C)(O)C5)nc43)cc2)s1` [Example 74, (1R,3R)-3-((3-bromo-1-(4-(5-methyl-1,3,4-thiadiazol-2-yl)phenyl)-1H-pyrazolo[3,4-d]pyrimidin-6-yl)amino)-1-methylcyclopentan-1-ol] showed an IC50 of 0.025 to 0.2 µM.

Same assay, conditions: tested as described in Example 77; compound and/or hydrochloride, dihydrochloride or trifluoroacetic acid salt; read-out: IC 50 Activity
With `CNC(=O)[C@]1(C)CC[C@@H](Nc2ncc3c(Br)nn(-c4cc(NC(=O)CCCN)c5ncccc5c4)c3n2)C1` [(1R,3R)-3-[[1-[8-(4-aminobutanoylamino)-6-quinolyl]-3-bromo-pyrazolo[3,4-d]pyrimidin-6-yl]amino]-N,1-dimethyl-cyclopentanecarboxamide] the IC50 was 0.025 to 0.2 µM. With `C[C@@H]1CN(C(=O)[C@@H]2CC[C@@H](Nc3ncc4c(Br)nn(-c5ccc6ncccc6c5)c4n3)C2)C[C@@H](C)O1` [((1R,3R)-3-((3-bromo-1-(quinolin-6-yl)-1H-pyrazolo[3,4-d]pyrimidin-6-yl)amino)cyclo-pentyl)((2R,6R)-2,6-dimethylmorpholino) methanone] the IC50 was 0.025 to 0.2 µM. Work on `Cc1nnc(-c2ccc(-n3nc(Br)c4cnc(N[C@@H]5CC[C@@](C)(C(=O)N6CCP(C)(=O)CC6)C5)nc43)cc2)s1` yielded an IC50 of 0.025 to 0.2 µM. `CNC(=O)[C@]1(C)CC[C@@H](Nc2ncc3c(Br)nn(-c4cc(C#N)cc(CS(C)(=O)=O)c4)c3n2)C1` showed an IC50 of 0.025 to 0.2 µM. With `CC1(C(N)=O)CC[C@@H](Nc2ncc3c(Br)nn(-c4ccc(-c5ncco5)c(F)c4)c3n2)C1` (stereo partly drawn) [(3R)-3-[[3-bromo-1-(3-fluoro-4-oxazol-2-yl-phenyl)pyrazolo[3,4-d]pyrimidin-6-yl]amino]-1-methyl-cyclopentanecarboxamide] the IC50 was < 0.025 µM. In the case of `CNC(=O)[C@]1(C)CC[C@@H](Nc2ncc3c(Br)nn(-c4cc(CS(C)(=O)=O)c5nccnc5c4)c3n2)C1` [(1R,3R)-3-[[3-bromo-1-[8-(methyl-sulfonylmethyl)quinoxalin-6-yl]pyrazolo [3,4-d]pyrimidin-6-yl]amino]-N,1-dimethyl-cyclopentanecarboxamide], the IC50 is reported as 0.025 to 0.2 µM. `CNC(=O)[C@]1(C)CC[C@@H](Nc2ncc3c(Br)nn(-c4ccc5nccc(=O)n5c4)c3n2)C1` [(1R,3R)-3-[[3-bromo-1-(4-oxopyrido [1,2-a]pyrimidin-7-yl)pyrazolo[3,4-d]pyrimidin-6-yl]amino]-N,1-dimethyl-cyclopentanecarboxamide] gave an IC50 of 0.025 to 0.2 µM. In the case of `C[C@H]1COCCN1C(=O)[C@@H]1CC[C@@H](Nc2ncc3c(Br)nn(-c4ccc5ncccc5c4)c3n2)C1` [((1R,3R)-3-((3-bromo-1-(quinolin-6-yl)-1H-pyrazolo[3,4-d]pyrimidin-6-yl)amino)cyclopentyl)((S)-3-methylmorpholino) methanone], the IC50 is reported as 0.025 to 0.2 µM. With `N#CC1CN(C(=O)[C@@H]2CC[C@@H](Nc3ncc4c(Br)cn(-c5cc(F)c6ncccc6c5)c4n3)C2)C1` [1-((1R,3R)-3-((5-bromo-7-(8-fluoroquinolin-6-yl)-7H-pyrrolo[2,3-d]pyrimidin-2-yl)amino)cyclopentane-1-carbonyl)azetidine-3-carbonitrile] the IC50 was < 0.025 µM. Work on `O=C(NCC(F)(F)CO)[C@@H]1CC[C@@H](Nc2ncc3c(Br)nn(-c4cc(F)c5ncccc5c4)c3n2)C1` yielded an IC50 of 0.025 to 0.2 µM. `CNC(=O)[C@]1(C)CC[C@@H](Nc2ncc3c(Br)nn(-c4ccc5ncn(CCN)c(=O)c5c4)c3n2)C1` gave an IC50 of 0.025 to 0.2 µM. `CNC(=O)[C@]1(C)CC[C@@H](Nc2ncc3c(Br)nn(-c4ccc5c(c4)OCC(=O)N5C(C)C)c3n2)C1` [(1R,3R)-3-[[3-bromo-1-(4-isopropyl-3-oxo-1,4-benzoxazin-7-yl)pyrazolo[3,4-d]pyrimidin-6-yl]amino]-N,1-dimethyl-cyclopentanecarboxamide] showed an IC50 of 0.025 to 0.2 µM. With `CNC(=O)[C@]1(C)CC[C@@H](Nc2ncc3c(Br)nn(-c4cc(CCN5CCOCC5)c5ncccc5c4)c3n2)C1` [(1R,3R)-3-[[3-bromo-1-[8-(2-morpholinoethyl)-6-quinolyl]pyrazolo [3,4-d]pyrimidin-6-yl]amino]-N,1-dimethyl-cyclopentanecarboxamide] the IC50 was 0.025 to 0.2 µM. Compound `CNC(=O)[C@]1(C)CC[C@@H](Nc2ncc3c(Br)nn(-c4cc(C#N)cc(OCC#N)c4)c3n2)C1` [(1R,3R)-3-[[3-bromo-1-[3-cyano-5-(cyanomethoxy)phenyl]pyrazolo[3,4-d]pyrimidin-6-yl]amino]-N,1-dimethyl-cyclopentanecarboxamide] has an IC50 of 0.025 to 0.2 µM. `CNC(=O)[C@]1(C(C)C)CC[C@@H](Nc2ncc3c(Br)nn(-c4ccc(-c5nnc(C)s5)c(CCC#N)c4)c3n2)C1` [(1R,3R)-3-[[3-bromo-1-[3-(2-cyanoethyl)-4-(5-methyl-1,3,4-thiadiazol-2-yl)phenyl]pyrazolo[3,4-d]pyrimidin-6-yl]amino]-1-isopropyl-N-methyl-cyclopentane-carboxamide] gave an IC50 of 0.025 to 0.2 µM. Work on `CNC(=O)C1(C)CC[C@@H](Nc2ncc3c(Br)nn(-c4cc(C)cc(CO)c4)c3n2)C1` (stereo partly drawn) [(3R)-3-[[3-bromo-1-[3-(hydroxymethyl)-5-methyl-phenyl]pyrazolo[3,4-d]pyrimidin-6-yl]amino]-N,1-dimethyl-cyclopentanecarboxamide] yielded an IC50 of 0.025 to 0.2 µM. For `CNCc1cc(OC(F)(F)F)cc(-n2nc(Br)c3cnc(N[C@@H]4CCC(C)(C(=O)NC)C4)nc32)c1` (stereo partly drawn) [(3R)-3-[[3-bromo-1-[3-(methylaminomethyl)-5-(trifluoromethoxy)phenyl]pyrazolo[3,4-d]pyrimidin-6-yl]amino]-N,1-dimethyl-cyclopentanecarboxamide], the IC50 was 0.025 to 0.2 µM. `CNC(=O)[C@]1(C#N)CC[C@@H](Nc2ncc3c(Br)nn(-c4ccc(-c5nnc(C)s5)cc4)c3n2)C1` gave an IC50 of 0.025 to 0.2 µM. `O=C1CN(C(=O)[C@@H]2CC[C@@H](Nc3ncc4c(Br)nn(-c5ccc(-c6ncco6)cc5)c4n3)C2)CCN1` [4-((1R,3R)-3-((3-bromo-1-(4-(oxazol-2-yl)phenyl)-1H-pyrazolo[3,4-d]pyrimidin-6-yl)amino)cyclopentane-1-carbonyl)piperazin-2-one] gave an IC50 of 0.025 to 0.2 µM. With `CNC(=O)[C@]1(C)CC[C@@H](Nc2ncc3c(Br)nn(-c4ccc(C#N)c(CNS(C)(=O)=O)c4)c3n2)C1` [(1R,3R)-3-[[3-bromo-1-[4-cyano-3-(methanesulfonamidomethyl)phenyl]pyrazolo[3,4-d]pyrimidin-6-yl]amino]-N,1-dimethyl-cyclopentanecarboxamide] the IC50 was 0.025 to 0.2 µM. `C=CC(=O)NCCc1cc(-n2nc(Br)c3cnc(N[C@@H]4CC[C@@](C)(C(=O)NC)C4)nc32)cc2cccnc12` [(1R,3R)-3-[[3-bromo-1-[8-[2-(prop-2-enoylamino)ethyl]-6-quinolyl]pyrazolo [3,4-d]pyrimidin-6-yl]amino]-N,1-dimethyl-cyclopentanecarboxamide] was tested, and the IC50 was 0.025 to 0.2 µM. With `CNC(=O)[C@]1(C)CC[C@@H](Nc2ncc3c(Br)nn(-c4ccc(-c5cnn(C)c5)cc4)c3n2)C1` [(1R,3R)-3-[[3-bromo-1-[4-(1-methyl-pyrazol-4-yl)phenyl]pyrazolo[3,4-d]pyrimidin-6-yl]amino]-N,1-dimethyl-cyclopentanecarboxamide] the IC50 was 0.025 to 0.2 µM. In the case of `CNC(=O)[C@]1(C)CC[C@@H](Nc2ncc3c(Br)nn(-c4cc(Cl)c(F)c(CO)c4)c3n2)C1` [(1R,3R)-3-[[3-bromo-1-[3-chloro-4-fluoro-5-(hydroxymethyl)phenyl]pyrazolo[3,4-d]pyrimidin-6-yl]amino]-N,1-dimethyl-cyclopentanecarboxamide], the IC50 is reported as 0.025 to 0.2 µM. Compound `CNC(=O)[C@]1(C)CC[C@@H](Nc2ncc3c(Br)nn(-c4ccc5nc(CNCCC#N)ccc5c4)c3n2)C1` [(1R,3R)-3-[[3-bromo-1-[2-[(2-cyanoethylamino)methyl]-6-quinolyl]pyrazolo[3,4-d]pyrimidin-6-yl]amino]-N,1-dimethyl-cyclopentane-carboxamide] has an IC50 of 0.025 to 0.2 µM. Work on `CNC(=O)[C@]1(C)CC[C@@H](Nc2ncc3c(Br)nn(-c4cc(CO)cc([N+](=O)[O-])c4)c3n2)C1` [(1R,3R)-3-[[3-bromo-1-[3-(hydroxy-methyl)-5-nitro-phenyl]pyrazolo [3,4-d]pyrimidin-6-yl]amino]-N,1-dimethyl-cyclopentanecarboxamide] yielded an IC50 of 0.025 to 0.2 µM. `CNC(=O)[C@@H]1CC[C@@H](Nc2ncc3c(Br)nn(-c4cc(Cl)cc(CO)c4)c3n2)C1` [(1R,3R)-3-[[3-bromo-1-[3-chloro-5-(hydroxy-methyl)phenyl]pyrazolo[3,4-d]pyrimidin-6-yl]amino]-N-methyl-cyclopentanecarboxamide] showed an IC50 of 0.025 to 0.2 µM. `O=C(NC1CCS(=O)(=O)CC1)[C@@H]1CC[C@@H](Nc2ncc3c(Br)nn(-c4ccc5ncccc5c4)c3n2)C1` gave an IC50 of 0.025 to 0.2 µM. `COC[C@H](C)NC(=O)[C@@H]1CC[C@@H](Nc2ncc3c(Br)nn(-c4ccc5ncccc5c4)c3n2)C1` [(1R,3R)-3-((3-bromo-1-(quinolin-6-yl)-1H-pyrazolo[3,4-d]pyrimidin-6-yl)amino)-N-((S)-1-methoxypropan-2-yl)cyclopentane-1-carboxamide] was tested, and the IC50 was 0.025 to 0.2 µM. With `C[C@H](N)c1cc(Cl)cc(-n2nc(Br)c3cnc(N[C@@H]4CC[C@@](C)(C#N)C4)nc32)c1` the IC50 was 0.025 to 0.2 µM. For `CNC(=O)[C@]1(C)CC[C@@H](Nc2ncc3c(Br)nn(-c4cc(CCN)c5cnccc5c4)c3n2)C1`, the IC50 was < 0.025 µM. In the case of `CNC(=O)[C@]1(C)CC[C@@H](Nc2ncc3c(Br)nn(-c4cc(CNS(C)(=O)=O)c5nccnc5c4)c3n2)C1` [(1R,3R)-3-[[3-bromo-1-[8-(methane-sulfonamidomethyl)quinoxalin-6-yl]pyrazolo[3,4-d]pyrimidin-6-yl]amino]-N,1-dimethyl-cyclopentanecarboxamide], the IC50 is reported as 0.025 to 0.2 µM. `CNC(=O)[C@]1(C)CC[C@@H](Nc2ncc3c(Br)nn(-c4cc(N5CCNCC5)c5ncccc5c4)c3n2)C1` was tested, and the IC50 was 0.025 to 0.2 µM.
